This is an account of results in PMC4411481, “Cyclic nucleotide binding and structural changes in the isolated GAF domain of Anabaena adenylyl cyclase, CyaB2” (PeerJ, 2015).

One may read the IC50 as the point on the concentration scale where inhibition reaches its midpoint. Broadly, the EC50 is the concentration that produces a half-maximal response. For orientation: Kd means a measure of binding affinity in units of concentration.

Test [1] concerns GAFb sensor (GFP2-GAFb-Rluc). Kind of test: In vitro BRET assay, GAFb sensor. It is filed as biochemical, Anabaena sp. PCC 7120. Conditions: cell lysate, 1 mM cNMP, 37 °C 10 min. A general note: BRET reads energy transfer from a luciferase to a nearby fluorophore.
Test [2] has as its system GAFab sensor (GFP2-GAFab-Rluc). Kind of test: In vitro BRET assay, GAFab sensor. It is filed as biochemical, Anabaena sp. PCC 7120. Conditions: cell lysate, 1 mM cNMP.
Test [3] has as its system I308A mutant GAFb domain of CyaB2. Format: binding, Anabaena sp. PCC 7120.
Test [4] addresses T1, tandem GAFab domains of CyaB2 (residues S77 to L431, GST fusion) (Nostoc sp. PCC 7120 (Anabaena sp. PCC 7120), UniProt P94182).
T1 sequence (P94182 77-431): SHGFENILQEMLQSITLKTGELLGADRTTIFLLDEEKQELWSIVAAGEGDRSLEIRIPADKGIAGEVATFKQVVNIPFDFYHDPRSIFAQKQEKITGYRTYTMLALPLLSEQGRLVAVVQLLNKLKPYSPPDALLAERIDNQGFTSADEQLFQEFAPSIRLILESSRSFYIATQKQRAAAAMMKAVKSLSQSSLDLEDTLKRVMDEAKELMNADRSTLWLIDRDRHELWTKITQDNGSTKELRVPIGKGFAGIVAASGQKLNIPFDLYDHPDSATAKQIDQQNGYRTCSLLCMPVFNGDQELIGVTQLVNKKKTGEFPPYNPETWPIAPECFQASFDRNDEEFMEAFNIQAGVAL
Kind of test: biochemical. Format: binding.

Test [5] deals with tandem GAFab domains of CyaB2 (residues S77 to L431, GST fusion). As to the kind of experiment: biochemical. Format: binding, Anabaena sp. PCC 7120. Conditions: tandem GAFab vs isolated GAFb.
Test [6] deals with T293A mutant GAFb domain of CyaB2. Kind of test: Cyclic nucleotide binding assay, T293A mutant GAFb. The arrangement: species or system Anabaena sp. PCC 7120.
The test system of test [7] is NterGAFab sensor (GFP2-NterGAFab-Rluc). As to the kind of experiment: In vitro BRET assay, NterGAFab sensor. The following applies: cell lysate, 1 mM cNMP. Format: biochemical, Anabaena sp. PCC 7120.
The target of another test is T2, PDE5 GAFa(F163A) sensor (Homo sapiens, UniProt O76074, F205A).
T2 construct: We used the F163A mutant GAFa domain of PDE5; expressed in transfected cells; host or cells: HEK293T lysate
As to the kind of experiment: In vitro BRET assay, PDE5 GAFa(F163A) sensor. The following applies: cell lysate, 1 mM cNMP, 37 °C 10 min. Format: biochemical.

The target in test [8] is T3, isolated GAFb domain of CyaB2 (residues Leu 270 to Leu 431, GST fusion) (Nostoc sp. PCC 7120 (Anabaena sp. PCC 7120), UniProt P94182).
T3 sequence (P94182 270-431): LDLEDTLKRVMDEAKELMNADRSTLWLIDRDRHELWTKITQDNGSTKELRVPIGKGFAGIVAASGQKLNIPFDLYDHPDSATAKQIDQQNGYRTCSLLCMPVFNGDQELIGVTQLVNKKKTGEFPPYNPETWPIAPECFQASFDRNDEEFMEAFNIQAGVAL
As to the kind of experiment: Cyclic nucleotide binding assay (3H-cAMP competition), GST-GAFb.

Test [9] deals with HEK293T cells expressing the GAFb sensor. As to the kind of experiment: Cellular BRET assay, GAFb sensor. It is filed as cell-based, Human. The following applies: 100 µM; forskolin 5 min, SNP 2 min, 37 °C.
Another test concerns HEK293T cells. As to the kind of experiment: Intracellular cNMP estimation by radioimmunoassay. Format: cell-based, Human. The following applies: 100 µM forskolin, 5 min. On the procedure: Intracellular levels of cyclic nucleotide monophosphates (cNMP) were measured from the cells used for BRET measurements, or […] transfected and treated cells. Cells were lysed in 0.1 N HCl and cNMP was measured by radioimmunoassay as described earlier ([Bakre, […], 2000]).

The subject of test [10] is CyaB1-CyaB2 fusion protein. The following applies: read-out: EC50, cAMP-mediated activation of a related adenylyl cyclase domain; ref Bruder et al., 2005; cited from earlier work.

SMILES strings stand for the structures. Read-outs that look alike come from different tables or passages of the source.

T2 sequence (O76074 148-315 F205A): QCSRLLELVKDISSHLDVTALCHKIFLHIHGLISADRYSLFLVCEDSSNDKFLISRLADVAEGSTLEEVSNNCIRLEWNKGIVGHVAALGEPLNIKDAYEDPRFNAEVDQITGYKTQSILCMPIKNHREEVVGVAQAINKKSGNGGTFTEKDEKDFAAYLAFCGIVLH

Consider `Nc1nc2c(ncn2[C@@H]2O[C@@H]3COP(=O)(O)O[C@H]3[C@H]2O)c(=O)[nH]1` [cGMP, guanosine 3′, 5′—cyclic monophosphate], for which the figures for the “change in BRET ratio” value (in test [1]; on PDE5 GAFa(F163A) sensor) were “no change in the BRET ratio” and “large increase in the BRET ratio”, respectively. The “change in BRET” value in [2] and in test [7] was “did not result in a significant alteration” in each case. The “change in affinity vs wild type GAFb” value in [3] is “remained unaltered”; in test [6] it was “reduction in the affinity”. The IC50 was found to be 2650 µM in [4] (tandem GAFab, ∼1 nM 3H-cAMP, read-out: IC50, competition with 3H-cAMP binding) and 7.6 ± 1.9 µM in [8] (isolated GAFb, ∼1 nM 3H-cAMP). Moreover, in test [5], the “fold lower affinity compared to the isolated GAFb domain” value was 348 fold.
Take `C=C[C@@]1(C)CC(=O)[C@]2(O)[C@@]3(C)[C@@H](O)CCC(C)(C)[C@@H]3[C@H](O)[C@H](OC(C)=O)[C@@]2(C)O1` [forskolin]: the “change in BRET ratios in live cells” value in test [9] was “no significant changes”. Moreover, in the test with HEK293T cells, the “intracellular levels of cAMP” value is “increased intracellular levels”.
Take `Nc1ncnc2c1ncn2[C@@H]1O[C@@H]2COP(=O)(O)O[C@H]2[C@H]1O` [cAMP, adenosine 3′, 5′—cyclic monophosphate]: the EC50 in test [10] is approximately 1.3 µM. The “change in BRET ratio” value in test [1] is reported as “no change in the BRET ratio”; on PDE5 GAFa(F163A) sensor, “large increase in the BRET ratio”. The “change in BRET” value in test [2] and in [7] was “did not result in a significant alteration” in each case. For the same molecule, the figures for the “change in affinity vs wild type GAFb” value in [3] and in test [6] were “significant reduction in the affinity” and “no change in the affinity”, respectively. This molecule had an IC50 in test [4] of 0.05 ± 0.02 µM. Also, in [5], the “fold higher affinity than the isolated GAFb domain” value is on record as 16 fold. This molecule also had a Kd in [8] of 0.8 ± 0.2 µM.
